Reference: publication PMC10574185, “Encapsulation and Biological Activity of Hesperetin Derivatives with HP-β-CD” (Molecules, 2023)
Values after ≈ are worked out from the molar mass of the structure shown. Read-outs that look alike come from different tables or passages of the source.

Assays:
[1] = Phase solubility studies with HP-β-CD; assay type: physicochemical; settings: for solubility at 60 min: thermodynamic from solid
Procedure: The purpose of this part of the study was to determine the solubility of compounds of hesperetin and its Schiff bases (HHSB, HIN, and HTSC) in aqueous solution at different pHs and temperatures, and the effect of their inclusion in modified HP-β-CD on the aqueous solubility of these compounds at different pH values.
The effect of the presence of HP-β-CD at different temperatures (25, 37, and 60 °C) was determined by developing phase solubility diagrams.
In accordance with the methodology described in Section 3.4, excess amounts of each tested substance were added to aqueous solution with increasing concentration of HP-β-CD up to 16 mM, respectively, in 2 mL of 100 mM sodium acetate buffer (pH 3.6), 100 mM sodium phosphate buffer (pH 6.5) or 100 mM sodium borate buffer (pH 8.5).
Phase solubility studies were conducted according to [64] with some modifications. Excess amounts of each tested substance were added to aqueous solution with increasing concentration of HP-β-CD up to 16 mM, in 2 mL of 100 mM sodium acetate buffer (pH 3.6), 100 mM sodium phosphate buffer (pH 6.5), or 100 mM sodium borate buffer (pH 8.5), respectively. The samples were maintained in an ultrasonic bath at various temperatures (25, 37, and 60 °C) for 60 min to reach equilibrium. The aqueous solutions were then filtered through 0.45 µm acetate cellulose (CA) membrane filter and diluted. The tested compound concentration on each clear filtrate was spectrophotometrically determined by measuring at their wavelength maximum.
The complexation constant (Kc) between studied molecules and HP-β-CD was determined by using Equation (1):(1) Kc=slope/S0 (1−slope) where S0 means the water solubility of the studied substance, and “slope” means the slope of the phase solubility diagram.
Complexation efficiency was calculated from the slope of the phase solubility diagram using Equation (2):(2) CE=S0×Kc=slope/1−slope
The CE was also applied to evaluate the molar ratio in solution of tested systems using Equation (3):(3) Compound:HP−β−CD=1:(1+1/CE)

[2] = DPPH assay (antioxidant activity); settings: concentration 0.1 mg/mL, mean ± SD
Procedure: (§1) To evaluate the antioxidant ability of the tested systems, antioxidant analysis was performed. Antioxidants can scavenge hydroxyl radicals in two ways: by reacting directly with hydroxyl radicals (DPPH^•, ABTS^•+) or indirectly inhibiting the formation of hydroxyl radicals by chelating metal ions involved in the production of hydroxyl radicals. The antioxidant activity of the systems studied was investigated by using DPPH^• scavenging, ABTS^•+ scavenging ability, and Fe^2+-chelating ability. In this study, the antioxidant activity of pure hesperetin and its Schiff bases (HHSB, HIN, and HTSC) and HP-β-CD complexes were compared, and the positive control was Trolox.
The detailed methodology of DPPH assay was described in the previous paper by Sykuła et al..

[3] = FRAP assay (ferric-ion reducing antioxidant power); settings: mean ± SD
Procedure: as §1
The antioxidant capacity determined by the FRAP assay (the ability of plasma to reduce iron) was carried out using a modification of the FRAP assay. The FRAP reagent consisted of the following solutions: 300 mM acetate, pH 3.6 glacial acetic acid buffer, 20 mM ferric chloride (FeCl3×6H2O), and 10 mM 2,4,6-tripyridyl-S-triazine (TPTZ) prepared in 40 mM HCl. The aforementioned solutions were mixed together in a ratio of 10:1:1 (v/v/v). The FRAP assay consisted of adding 15 µL of sample to 1.98 mL of reagent and incubating the mixture at 37 °C for 4 min. Absorbance measurement was recorded at 593 nm against a blank. Total antioxidant capacity was estimated relative to a standard of known FRAP concentration, ferrous sulfate.

[4] = system: Staphylococcus aureus ATCC 25923; test: Minimal inhibition concentration (dilution + diffusion-well); assay type: cell-based; settings: ATCC25923, 37 °C, 18 h
Procedure: The MIC was performed for compounds and strains sensitive to their action in the antagonistic test. Minimum inhibitory concentration was determined by combining the dilution method with the diffusion-well method. Test compounds at a concentration of 500 μM were prepared in 5% (w/w) DMSO. Surface layer of microorganisms, against which antagonistic activity was noted, were prepared in the same way as for the antagonistic test. Then, two-fold sequential dilutions of the test compounds in the range of 500 µM to 62.5 µM were prepared. Wells with a diameter of 8 mm cut in the Mueller–Hinton Agar (Merck, Darmstadt, Germany) with the test strain were added with 50 µL of the prepared dilutions, which corresponded to the following concentrations of the tested compounds: […], 1.25 mM, 0.625 mM, and […]. Petri dishes prepared in this way were incubated at 37 °C for 18 h. After a given time, the MIC value was read. The MIC concentration expressed in µM was the first concentration of the tested compounds at which growth inhibition of the test strain was observed.

[5] = aqueous buffer, 25 °C, pH 3.6 sodium acetate buffer, without cyclodextrin, read-out: solubility without HP-β-CD (value in brackets) (converted)
[6] = aqueous buffer, 25 °C, pH 6.5 sodium phosphate buffer, without cyclodextrin, read-out: solubility without HP-β-CD (value in brackets) (converted)
[7] = aqueous buffer, 25 °C, pH 8.5 sodium borate buffer, without cyclodextrin, read-out: solubility without HP-β-CD (value in brackets) (converted)
[8] = aqueous buffer, 37 °C, pH 3.6 sodium acetate buffer, without cyclodextrin, read-out: solubility without HP-β-CD (value in brackets) (converted)
[9] = aqueous buffer, 37 °C, pH 6.5 sodium phosphate buffer, without cyclodextrin, read-out: solubility without HP-β-CD (value in brackets) (converted)
[10] = aqueous buffer, 37 °C, pH 8.5 sodium borate buffer, without cyclodextrin, read-out: solubility without HP-β-CD (value in brackets) (converted)
[11] = aqueous buffer, 60 °C, pH 3.6 sodium acetate buffer, without cyclodextrin, read-out: solubility without HP-β-CD (value in brackets) (converted)
[12] = aqueous buffer, 60 °C, pH 6.5 sodium phosphate buffer, without cyclodextrin, read-out: solubility without HP-β-CD (value in brackets) (converted)
[13] = aqueous buffer, 60 °C, pH 8.5 sodium borate buffer, without cyclodextrin, read-out: solubility without HP-β-CD (value in brackets) (converted)
[14] = 25 °C, pH 3.6 sodium acetate buffer, with HP-β-CD, read-out: S0 (solubility with HP-β-CD)
[15] = 25 °C, pH 6.5 sodium phosphate buffer, with HP-β-CD, read-out: S0 (solubility with HP-β-CD)
[16] = 25 °C, pH 8.5 sodium borate buffer, with HP-β-CD, read-out: S0 (solubility with HP-β-CD)
[17] = 37 °C, pH 3.6 sodium acetate buffer, with HP-β-CD, read-out: S0 (solubility with HP-β-CD)
[18] = 37 °C, pH 6.5 sodium phosphate buffer, with HP-β-CD, read-out: S0 (solubility with HP-β-CD)
[19] = 37 °C, pH 8.5 sodium borate buffer, with HP-β-CD, read-out: S0 (solubility with HP-β-CD)
[20] = 60 °C, pH 3.6 sodium acetate buffer, with HP-β-CD, read-out: S0 (solubility with HP-β-CD)
[21] = 60 °C, pH 6.5 sodium phosphate buffer, with HP-β-CD, read-out: S0 (solubility with HP-β-CD)
[22] = 60 °C, pH 8.5 sodium borate buffer, with HP-β-CD, read-out: S0 (solubility with HP-β-CD)

## COc1ccc(C2CC(=NNC(N)=S)c3c(O)cc(O)cc3O2)cc1O (stereo not drawn) [HTSC, N-[2,3-dihydro-5,7-dihydroxy-2-(3-hydroxy-4-methoxyphenyl)chromen-4-ylidene]thiosemicarbazide]
[1]; 25 °C, pH 3.6, with HP-β-CD
  CE complexation efficiency: 0.07%
  Kc complexation constant: 13 ± 2.9 M⁻¹
[1]; 25 °C, pH 6.5, HP-β-CD at 16 mM
  increase of solubility with HP-β-CD: five-fold
[1]; 25 °C, pH 6.5, with HP-β-CD
  CE complexation efficiency: 0.07%
  Kc complexation constant: 11 ± 1.6 M⁻¹
[1]; 25 °C, pH 8.5, with HP-β-CD
  CE complexation efficiency: 0.1%
  Kc complexation constant: 12.5 ± 0.3 M⁻¹
[1]; 37 °C, pH 3.6, with HP-β-CD
  CE complexation efficiency: 0.1%
  Kc complexation constant: 16 ± 1.7 M⁻¹
[1]; 37 °C, pH 6.5, with HP-β-CD
  CE complexation efficiency: 0.1%
  Kc complexation constant: 16 ± 1.7 M⁻¹
[1]; 37 °C, pH 8.5, with HP-β-CD
  CE complexation efficiency: 0.3%
  Kc complexation constant: 18 ± 4.2 M⁻¹
[1]; 60 °C, pH 3.6
  increase of solubility with HP-β-CD: five-fold
[1]; 60 °C, pH 3.6, with HP-β-CD
  CE complexation efficiency: 0.5%
  Kc complexation constant: 28 ± 0.3 M⁻¹
[1]; 60 °C, pH 6.5, with HP-β-CD
  CE complexation efficiency: 0.04%
  Kc complexation constant: 2.2 ± 0.6 M⁻¹
[1]; 60 °C, pH 8.5, with HP-β-CD
  CE complexation efficiency: 0.1%
  Kc complexation constant: 3.2 ± 0.6 M⁻¹
[1]; [5]
  solubility at 60 min: 17 µM (≈ 6.38 µg/mL)
[1]; [6]
  solubility at 60 min: 11 µM (≈ 4.13 µg/mL)
[1]; [7]
  solubility at 60 min: 20 µM (≈ 7.51 µg/mL)
[1]; [8]
  solubility at 60 min: 28 µM (≈ 10.5 µg/mL)
[1]; [9]
  solubility at 60 min: 27 µM (≈ 10.1 µg/mL)
[1]; [10]
  solubility at 60 min: 220 µM (≈ 82.6 µg/mL)
[1]; [11]
  solubility at 60 min: 37 µM (≈ 13.9 µg/mL)
[1]; [12]
  solubility at 60 min: 160 µM (≈ 60.1 µg/mL)
[1]; [13]
  solubility at 60 min: 250 µM (≈ 93.9 µg/mL)
[1]; [14]
  solubility at 60 min: 54 ± 30 µM (≈ 20.3 µg/mL)
[1]; [15]
  solubility at 60 min: 61 ± 20 µM (≈ 22.9 µg/mL)
[1]; [16]
  solubility at 60 min: 70 ± 30 µM (≈ 26.3 µg/mL)
[1]; [17]
  solubility at 60 min: 76 ± 35 µM (≈ 28.5 µg/mL)
[1]; [18]
  solubility at 60 min: 68 ± 33 µM (≈ 25.5 µg/mL)
[1]; [19]
  solubility at 60 min: 160 ± 54 µM (≈ 60.1 µg/mL)
[1]; [20]
  solubility at 60 min: 170 ± 65 µM (≈ 63.8 µg/mL)
[1]; [21]
  solubility at 60 min: 180 ± 60 µM (≈ 67.6 µg/mL)
[1]; [22]
  solubility at 60 min: 270 ± 89 µM (≈ 101 µg/mL)
[2]
  DPPH antioxidant activity: 93.72 ± 6.8%
[3]
  FRAP antioxidant activity: 0.000005 ± 0.00005 mmolFe(II)/L
[4]
  MIC: 1.25 µM

## COc1ccc(C2C/C(=N\NC(=O)c3ccccc3)c3c(O)cc(O)cc3O2)cc1O (racemic) [HHSB]
[1]; 25 °C, pH 3.6, with HP-β-CD
  CE complexation efficiency: 1.4%
  Kc complexation constant: 341 ± 79 M⁻¹
[1]; 25 °C, pH 6.5, with HP-β-CD
  CE complexation efficiency: 0.7%
  Kc complexation constant: 150 ± 21 M⁻¹
[1]; 25 °C, pH 8.5, with HP-β-CD
  CE complexation efficiency: 0.7%
  Kc complexation constant: 150 ± 19 M⁻¹
[1]; 37 °C, pH 3.6, with HP-β-CD
  CE complexation efficiency: 1.1%
  Kc complexation constant: 226 ± 92 M⁻¹
[1]; 37 °C, pH 6.5, with HP-β-CD
  CE complexation efficiency: 2.5%
  Kc complexation constant: 618 ± 36 M⁻¹
[1]; 37 °C, pH 8.5, with HP-β-CD
  CE complexation efficiency: 0.15%
  Kc complexation constant: 100 ± 34 M⁻¹
[1]; 60 °C, pH 3.6, with HP-β-CD
  CE complexation efficiency: 0.9%
  Kc complexation constant: 250 ± 20 M⁻¹
[1]; 60 °C, pH 6.5, with HP-β-CD
  CE complexation efficiency: 1.8%
  Kc complexation constant: 155 ± 4 M⁻¹
[1]; 60 °C, pH 8.5
  increase of solubility with HP-β-CD: five-fold
[1]; 60 °C, pH 8.5, with HP-β-CD
  CE complexation efficiency: 7%
  Kc complexation constant: 728 ± 82 M⁻¹
[1]; [5]
  solubility at 60 min: 18 µM (≈ 7.57 µg/mL)
[1]; [6]
  solubility at 60 min: 25 µM (≈ 10.5 µg/mL)
[1]; [7]
  solubility at 60 min: 25 µM (≈ 10.5 µg/mL)
[1]; [8]
  solubility at 60 min: 20 µM (≈ 8.41 µg/mL)
[1]; [9]
  solubility at 60 min: 5 µM (≈ 2.1 µg/mL)
[1]; [10]
  solubility at 60 min: 5 µM (≈ 2.1 µg/mL)
[1]; [11]
  solubility at 60 min: 12 µM (≈ 5.05 µg/mL)
[1]; [12]
  solubility at 60 min: 27 µM (≈ 11.4 µg/mL)
[1]; [13]
  solubility at 60 min: 18 µM (≈ 7.57 µg/mL)
[1]; [14]
  solubility at 60 min: 41 ± 21 µM (≈ 17.2 µg/mL)
[1]; [15]
  solubility at 60 min: 45 ± 5 µM (≈ 18.9 µg/mL)
[1]; [16]
  solubility at 60 min: 45 ± 5 µM (≈ 18.9 µg/mL)
[1]; [17]
  solubility at 60 min: 50 ± 10 µM (≈ 21 µg/mL)
[1]; [18]
  solubility at 60 min: 41 ± 23 µM (≈ 17.2 µg/mL)
[1]; [19]
  solubility at 60 min: 15 ± 6.1 µM (≈ 6.31 µg/mL)
[1]; [20]
  solubility at 60 min: 36 ± 14 µM (≈ 15.1 µg/mL)
[1]; [21]
  solubility at 60 min: 115 ± 53 µM (≈ 48.3 µg/mL)
[1]; [22]
  solubility at 60 min: 96 ± 42 µM (≈ 40.4 µg/mL)
[2]
  DPPH antioxidant activity: 44.29 ± 4.5%
[3]
  FRAP antioxidant activity: 0.000005 ± 0.00005 mmolFe(II)/L
[4]
  MIC: 2.5 µM
